Assay results published in patent US20070219234A1, “Thienopyridine Derivatives” (priority 2004, published 2007).

Experiments:
ST2 cells = experiment: Osteoblast differentiation test (alkaline phosphatase activity); assay type: cell-based; conditions: Mus musculus, ST-2, 96 h; at 0.03 μg/mL; culturing for four days; control group (0.1% DMSO) = 100%; read-out: alkaline phosphatase activity increase rate
Procedure: ST2 cells (available from Institute of Physical and Chemical Research) which are stroma cells derived from mouse marrow were used. In this test, α-MEM medium (available from GIBCO BRL Cat. No. 10370-021) with which 10% (v/v) inactivated fetal bovine serum (available from Hyclone Company, FBS) and 1% (v/v) Penicillin-Streptomycin, Liquid (available from GIBCO BRL Cat. No. 15140-122) are mixed (hereinbelow abbreviated as 10% -FBS-αMEM) was used. Every culture in this test was conducted in a CO2 incubator (37° C., 95% humidity, 5% CO2).
The cells mentioned above were harvested with 2 mL of 0.25% trypsin solution (available from GIBCO BRL Cat. No. 15050-065) and after they were dispersed by adding 10 mL of 10% -FBS-αMEM, the cells were collected by centrifugal separation (25° C., 800 rpm, 5 minutes). A cell suspension containing 40,000 cells/mL was prepared from the collected cells using 10% -FBS-αMEM.
The cell suspension was dispensed to the wells of a 96 well microplate (Falcon company) in an amount of 100 μL per well so as to achieve 4,000 cells/well and cultured for 24 hours. Compounds were dispensed to the wells in final concentrations of 0.01, 0.03, 0.1, 0.3 μg/ml except the following control group. DMSO was dispensed to the wells of the control group in a final concentration of 0.1% (v/v). Alkaline phosphatase (ALP) activity was measured for each group after culturing for four days.
The measurement of ALP activity was performed as follows. That is, after the whole medium was removed from each well of the culturing plate, each well was washed twice by dispensing and removing 100 μL of Dulbecco's phosphate buffer (available from GIBCO BRL Cat. No. 14190-144). Cell lysing solution containing 10 mM MgCl2 and 2%(v/v) TritonX-100 (Sigma company) was prepared and 50 μL/well of the cell lysing solution was dispensed and the mixture was stirred at room temperature for five minutes. An ALP substrate solution containing 50 mM of diethanolamine (Wako Pure Chemical Industries, Ltd. Cat. No. 099-03112) and 20 mM of […] (Wako Pure Chemical Industries, Ltd. Cat. No. 147-02343) was prepared and 50 μL/well of the ALP substrate solution was dispensed and after allowing to stand at room temperature for 10 minutes, absorbance was measured using a microplate reader (Bio-rad company). Alkaline phosphatase activity increase rate (%) in the group blended with test compounds was calculated assuming the observed value of the control group of each plate to be 100% and evaluated as the osteoblast differentiation promoting activity.

[1] = tested on: cells from femurs and tibias of ICR mice; experiment: Osteoclast formation suppression test (TRAP activity); assay type: cell-based, mouse; conditions: 20 nM active form vitamin D3; compounds 0.01-0.3 μg/ml; culturing for five days
Procedure: 18 day-old ICR mice were purchased from Japan SLC, Inc. and used in the following experiments. The mice were sacrificed by cervical dislocation and the right and left femurs and tibias were extracted. After the tissue around the extracted femurs and tibias was removed, they were finely minced with scissors. 10 mL of 15%-FBS-αMEM was added to the minced femurs and tibias and the supernatant was collected after agitation for one minute and filtering with a cell strainer (Becton Dickinson company). A cell suspension containing 500,000 cells/mL was prepared with 15%-FBS-αMEM. The cell suspension was dispensed to the wells of a 96 well microplate (Falcon company) in an amount of 100 μL per well so as to achieve 50,000 cells/well and cultured for 24 hours. Active form vitamin D3 (Sigma company, Cat.No.D1530) was dispensed to the wells in final concentrations of 20 nM. Compounds were dispensed to the wells in final concentrations of 0.01, 0.03, 0.1, 0.3 μg/ml except the following control group. DMSO was dispensed to the wells of the control group in a final concentration of 0.1% (v/v). Tartrate-resistant acid phosphatase (TRAP) activity was measured for each group after culturing for five days.
The measurement of TRAP activity was performed as follows. That is, after the whole medium was removed from each well of the culturing plate, each well was washed twice by dispensing and removing 100 μL of Dulbecco's phosphate buffer (available from GIBCO BRL Cat. No. 14190-144). After retaining with a mixture of acetone-ethanol (1:1) for one minute, the retention liquid was removed and the wells were stained at 37° C. with Leukocyte acid phosphatase kit (Sigma company, Cat. No. 387-A) for 30 minutes. The staining solution was removed, then 100 μL of 10% sodium dodecylsulfate (Wako Pure Chemical Industries, Ltd. Cat. No. 191-07145) was dispensed and the mixture was stirred for five minutes, and then absorbance was measured using a microplate reader (Bio-rad company). TRAP activity decrease rate (%) in the group blended with test compounds was calculated assuming the observed value of the control group of each plate to be 100% and evaluated as the osteoclast formation suppression activity.

Structure (SMILES)	melting point	activity at 0.03 µg/mL (ST2 cells) [%]	osteoclast formation suppression effect (TRAP activity decrease rate) [1]
NC(=O)c1sc2nccc(N3CC[C@@H]4CCCC[C@@H]4C3)c2c1N (relative stereo) [Example 29, 3-amino-4-(cis-perhydroisoquinolin-2-yl)thieno[2,3-b]pyridine-2-carboxamide]	224 to 226 °C	> 150	
NC(=O)c1sc2nccc(N3CCCCC3)c2c1N [Example 14, 3-amino-4-piperidin-1-ylthieno[2,3-b]pyridine-2-carboxamide]	191 to 192 °C	> 150	
CC1CCCN(c2ccnc3sc(C(N)=O)c(N)c23)C1 (centres unmarked) [Example 16, 3-amino-4-(3-methylpiperidin-1-yl)thieno[2,3-b]pyridine-2-carboxamide]	201 to 204 °C	> 150	
NC(=O)c1sc2nccc(N3CCCC(CO)C3)c2c1N (centres unmarked) [Example 17, 3-amino-4-[3-(hydroxymethyl)piperidin-1-yl]thieno[2,3-b]pyridine-2-carboxamide]	125 to 130 °C	> 150	
NC(=O)c1sc2nccc(N3CCSCC3)c2c1N [Example 24, 3-amino-4-thiomorpholin-4-ylthieno[2,3-b]pyridine-2-carboxamide]	255 to 258 °C	> 150	
COc1ccc(N2CCCN(c3ccnc4sc(C(N)=O)c(N)c34)CC2)cc1 [Example 58, 3-amino-4-[4-(4-methoxyphenyl)-1,4-diazepan-1-yl]thieno[2,3-b]pyridine-2-carboxamide]	206 to 208 °C	> 150	
NC(=O)c1sc2nccc(N3CCCN(c4ccc([N+](=O)[O-])cc4)CC3)c2c1N [Example 59, 3-amino-4-[4-(4-nitrophenyl)-1,4-diazepan-1-yl]thieno[2,3-b]pyridine-2-carboxamide]	244 to 248 °C	> 150	
CSc1ccc(N2CCCN(c3ccnc4sc(C(N)=O)c(N)c34)CC2)cc1 [Example 64, 3-amino-4-{4-[4-(methylthio)phenyl]-1,4-diazepan-1-yl}thieno[2,3-b]pyridine-2-carboxamide]	186 to 188 °C	> 150	
Cc1cccc(N2CCCN(c3ccnc4sc(C(N)=O)c(N)c34)CC2)c1 [Example 65, 3-amino-4-[4-(3-toluyl)-1,4-diazepan-1-yl]thieno[2,3-b]pyridine-2-carboxamide]	209 to 212 °C	> 150	excellent osteoclast formation suppression effect
C[S+]([O-])c1ccc(N2CCCN(c3ccnc4sc(C(N)=O)c(N)c34)CC2)cc1 (centres unmarked) [Example 66, 3-amino-4-{4-[4-(methylsulfinyl)phenyl]-1,4-diazepan-1-yl}thieno[2,3-b]pyridine-2-carboxamide]	153 to 157 °C	> 150	excellent osteoclast formation suppression effect
NC(=O)c1sc2nccc(N3CCCN(c4cccnc4)CC3)c2c1N [Example 96, 3-amino-4-(4-pyridin-3-yl-1,4-diazepan-1-yl)thieno[2,3-b]pyridine-2-carboxamide]		> 150	

Now from value to compound, other results behind:

melting point	Structure (SMILES)	activity at 0.03 µg/mL (ST2 cells) [%]	osteoclast formation suppression effect (TRAP activity decrease rate) [1]
193 to 195 °C	COc1cccc(N2CCCN(c3ccnc4sc(C(N)=O)c(N)c34)CC2)c1 [Example 68, 3-amino-4-[4-(3-methoxyphenyl)-1,4-diazepan-1-yl]thieno[2,3-b]pyridine-2-carboxamide]	> 150	
104 to 107 °C	NC(=O)c1sc2nccc(N3CCCN(c4ccc5c(c4)OCCO5)CC3)c2c1N [Example 72, 3-amino-4-[4-(2,3-dihydro-1,4-benzodioxin-6-yl)-1,4-diazepan-1-yl]thieno[2,3-b]pyridine-2-carboxamide]	> 150	excellent osteoclast formation suppression effect
174 to 176 °C	CN(C)c1ccc(N2CCCN(c3ccnc4sc(C(N)=O)c(N)c34)CC2)cc1 [Example 74, 3-amino-4-{4-[4-(dimethylamino)phenyl]-1,4-diazepan-1-yl}thieno[2,3-b]pyridine-2-carboxamide]	> 150	
203 to 205 °C	NC(=O)c1sc2nccc(N3CCCN(c4ccc(F)cc4)CC3)c2c1N [Example 76, 3-amino-4-[4-(4-fluorophenyl)-1,4-diazepan-1-yl]thieno[2,3-b]pyridine-2-carboxamide]	> 150	
175 to 176 °C	Cc1ccc(N2CCCN(c3ccnc4sc(C(N)=O)c(N)c34)CC2)cc1 [Example 77, 3-amino-4-[4-(4-methylphenyl)-1,4-diazepan-1-yl]thieno[2,3-b]pyridine-2-carboxamide]	> 150	
181 to 183 °C	CCOc1ccc(N2CCCN(c3ccnc4sc(C(N)=O)c(N)c34)CC2)cc1 [Example 83, 3-amino-4-[4-(4-ethoxyphenyl)-1,4-diazepan-1-yl]thieno[2,3-b]pyridine-2-carboxamide]	> 150	excellent osteoclast formation suppression effect
195 to 197 °C	Cc1ccc(N2CCCN(c3ccnc4sc(C(N)=O)c(N)c34)CC2)cc1C [Example 84, 3-amino-4-[4-(3,4-dimethylphenyl)-1,4-diazepan-1-yl]thieno[2,3-b]pyridine-2-carboxamide]	> 150	
186 to 188 °C	CCc1ccc(N2CCCN(c3ccnc4sc(C(N)=O)c(N)c34)CC2)cc1 [Example 93, 3-amino-4-[4-(4-ethylphenyl)-1,4-diazepan-1-yl]thieno[2,3-b]pyridine-2-carboxamide]	> 150	
170 to 172 °C	COc1ccc(N2CCCN(c3ccnc4sc(C(N)=O)c(N)c34)CC2)cn1 [Example 98, 3-amino-4-[4-(6-methoxypyridin-3-yl)-1,4-diazepan-1-yl]thieno[2,3-b]pyridine-2-carboxamide]	> 150	
238 to 240 °C (dec.)	CC(C)Oc1ccnc2sc(C(N)=O)c(N)c12 [Example 111, 3-amino-4-isopropoxythieno[2,3-b]pyridine-2-carboxamide]		
179 to 180 °C	NC(=O)c1sc2nccc(OC3CCCCCC3)c2c1N [Example 112, 3-amino-4-(cycloheptyloxy)thieno[2,3-b]pyridine-2-carboxamide]		
230 to 235 °C	CCSc1ccnc2sc(C(N)=O)c(N)c12 [Example 114, 3-amino-4-(ethylthio)thieno[2,3-b]pyridine-2-carboxamide]		
195 to 197 °C	NC(=O)c1sc2nccc(SC3CCCCC3)c2c1N [Example 115, 3-amino-4-(cyclohexylthio)thieno[2,3-b]pyridine-2-carboxamide]		
